Measured values published in patent US11072634B2, “Inhibitors of transglutaminases” (Zedira GmbH, priority 2016, dated 2021).

What was measured:
TG2 = molecular target: T1, TG2 (Rattus norvegicus, UniProt Q9WVJ6); experiment: TG2 activity in NRK52E cell homogenates (Tissue Transglutaminase Pico-Assay Kit); format: cell-based; conditions: 6/24/36 mM glucose, 10-100 μM inhibitor
T1 construct: endogenous in cells; host or cells: NRK52E
T1 sequence (Q9WVJ6 1-686): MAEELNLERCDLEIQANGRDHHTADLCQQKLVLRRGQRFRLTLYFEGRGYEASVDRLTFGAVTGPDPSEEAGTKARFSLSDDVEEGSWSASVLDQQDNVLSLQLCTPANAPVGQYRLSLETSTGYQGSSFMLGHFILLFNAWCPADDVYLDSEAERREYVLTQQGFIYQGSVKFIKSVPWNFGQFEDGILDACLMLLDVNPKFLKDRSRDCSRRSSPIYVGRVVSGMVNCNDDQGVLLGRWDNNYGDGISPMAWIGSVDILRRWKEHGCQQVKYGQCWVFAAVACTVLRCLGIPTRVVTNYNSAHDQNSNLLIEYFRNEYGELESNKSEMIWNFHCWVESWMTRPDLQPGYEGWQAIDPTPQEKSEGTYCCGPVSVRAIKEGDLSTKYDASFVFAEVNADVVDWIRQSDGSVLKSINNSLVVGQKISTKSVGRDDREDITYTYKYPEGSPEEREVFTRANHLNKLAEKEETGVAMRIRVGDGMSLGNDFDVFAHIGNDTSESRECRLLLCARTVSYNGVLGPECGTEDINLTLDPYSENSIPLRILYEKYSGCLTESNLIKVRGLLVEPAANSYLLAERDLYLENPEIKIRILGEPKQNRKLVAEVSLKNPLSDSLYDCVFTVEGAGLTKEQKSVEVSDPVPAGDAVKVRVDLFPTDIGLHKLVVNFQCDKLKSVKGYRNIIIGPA
Description: Fibrosis is a hallmark in diabetic nephropathy and chronic kidney diseases. Proximal tubular epithelial cells show increased TG2 activity and increased extracellular matrix proteins (ECM) accumulation under hyperglycemic conditions. ECM accumulation is a hall mark of fibrosis. […] TG2-activity and ECM-accumulation was measured. Rattus norvegicus kidney derived cell line NRK52E was grown at 37° C. in a humidified atmosphere at 5% (v/v) CO2 in DMEM (Dulbecco's modified Eagle's medium) containing 100 μg/mL streptomycin, 100 units/ml penicillin, […], and 10% (v/v) fetal calf serum. For simulation of normal physiological conditions 6 mM D-glucose were added to the medium, while addition of 24 mM and 36 mM D-glucose simulated hyperglycemic conditions. Reversible TG2 inhibitor E06 in the concentrations indicated in FIG. 1A was added at the time of plating to the medium. Reversible TG2 inhibitor E22 in the concentrations indicated in FIG. 2A was added at the time of plating to the medium.
TG2-activity was determined in cell homogenates. […]
TG2-activity was measured using the TG2-selective Tissue Transglutaminase Pico-Assay Kit (#M003, Zedira, Darmstadt, Germany) according to the manufacturer's instructions. […]

BEAS-2B cells = experiment: Extracellular matrix protein deposition of LPS-stimulated BEAS-2B cells; format: cell-based, human; conditions: 0-200 μM
Description: B) Extracellular matrix protein deposition of homogenates from BEAS-2B-cell grown in the presence of 0-200 μM E22 and stimulated with LPS measured by the DC-protein-assay (BioRad, #5000111).
Extracellular matrix deposition is a hallmark in pulmonary fibrosis. The BEAS-2B cell line is derived from normal human bronchial epithelium.
BEAS-2B cells were grown at 37° C. and 5% CO2 in 25 mM HEPES-buffered M199-medium (Merck, Darmstadt) containing 10% FBS, […], 2 mM glutamine, 100 U/ml penicillin (supplemented with […] apotransferrin, 20 ng/ml human epidermal growth factor (EGF), […] insulin, and 0.361 mg/ml hydrocortisone). For the induction of airway fibrosis by epithelial-to-mesenchymal transition (EMT), cells were seeded at 80% confluence on six-well plates. After one day cultivation 4 μg/mL LPS as well as 0 μM, 100 μM or 200 μM E22 were added and then incubated for further 72 h.

CaCo2 and Huh7 cells = experiment: Cytotoxicity of transglutaminase inhibitors (BrdU and EZ4U); format: cell-based, human; conditions: highest concentration measured 1 mM
Description: The following cell lines are used for determination of cytotoxicity: • CaCo2 (human colon carcinoma cell line) • Huh7 (human liver carcinoma cell line).
Cells are cultivated in DMEM/10% FCS at 37° C. and 5% CO2 in a 96 well plate with an initial seeding density of 2×10^4 cells/well.
Transglutaminase inhibitors are added to the cells with final concentrations from 0.1 μM to 1 mM one hour after seeding. The different inhibitor dilutions are prepared in DMSO, resulting in a final concentration of 1% (v/v) DMSO in every well (2 μl inhibitor in 200 μl cell culture medium). Cycloheximide (2.5 μg/ml) and Camptothecin (0.2 μg/ml) are used as control compounds. All measurements are performed in triplicates.
Cytotoxicity of transglutaminase inhibitors is evaluated with two different assays:
Determination of proliferation using Cell Proliferation ELISA, BrdU (Roche, Cat. No. 11647229001).
After 24 h of incubation with inhibitors or controls, BrdU is added to the cells. After further incubation for 18 h, the cells are fixed and cellular DNA becomes denatured. […] Substrate solution is added and absorbance at 450 nm is recorded. […]
After 48 h of incubation with inhibitors or controls, the tetrazolium substrate is added to the cells. Substrate turnover by the cells is measured over two hours at 450 nm (using 630 nm was reference wavelength).

Structure (SMILES)	TG2 activity determined in the cell homogenates (TG2)	deposition of ECM-proteins (BEAS-2B cells)	no influence on cell proliferation or metabolic activity up to (CaCo2 and Huh7 cells) [mM]
CCCCCNC(=O)C(=O)CC[C@H](NC(=O)[C@@H]1CCCN1C(C)=O)C(=O)Nc1cccn(CC(=O)NCC(CC)CC)c1=O [Compound E22, (S)-2-((S)-1-acetylpyrrolidine-2-carboxamido)-N1-(1-(2-(2-ethylbutylamino)-2-oxoethyl)-2-oxo-1,2-dihydropyridin-3-yl)-5-oxo-N6-pentylhexanediamide]	decreases	significantly reduced, also in a dose dependent manner	–
CC(=O)N[C@@H](CCC(=O)C(N)=O)C(=O)N1CCN(c2ccccc2Cl)CC1 [Compound E06, (S)-5-acetamido-6-(4-(2-chlorophenyl)piperazin-1-yl)-2,6-dioxohexanamide]	decreases	–	–
COC(=O)[C@H](CC(C)C)NC(=O)[C@@H]1CCCN1C(=O)[C@@H](NC(=O)[C@H](CCC(=O)C(N)=O)NC(=O)OCc1ccccc1)C(C)C [Compound E02, (S)-methyl 2-((S)-1-((S)-2-((S)-6-amino-2-(benzyloxycarbonylamino)-5,6-dioxo-hexanamido)-3-methylbutanoyl)pyrrolidine-2-carboxamido)-4-methylpentanoate]	–	–	> 1
